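Results reflect a 48-hour exposure of cells in 96-well plates to compound at five concentrations. GI50 is the concentration that inhibits growth by half. TGI denotes the concentration required for complete inhibition of growth.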 Some results are limits rather than exact numbers.

Our source for the GI50 and TGI values is PubChem BioAssay (NCI).

Among the test systems are MDA-MB-231 breast; BT-549 breast; MCF7 breast; U251 CNS; SK-MEL-5 melanoma; SR leukemia; UO-31 renal; CCRF-CEM leukemia; MOLT-4 leukemia; CAKI-1 renal.
Test in all cases: NCI tumour cell line growth inhibition, 48 h

Consider `COC(=O)Nc1nc2ccc(C3(c4ccc(F)cc4)OCCO3)cc2[nH]1`, for which the GI50 with MDA-MB-231 breast is 0.598 µM; with BT-549 breast, 2.77 µM; with MCF7 breast it was 0.18 µM; with U251 CNS, 0.398 µM; with SK-MEL-5 melanoma, 0.267 µM; in the assay on SR leukemia, 0.122 µM. For the same molecule, the GI50 with UO-31 renal was 3.39 µM; in the assay with CCRF-CEM leukemia it was 0.337 µM; in the assay with MOLT-4 leukemia, 0.573 µM; in the assay on CAKI-1 renal, 0.462 µM. For the same molecule, the TGI is 99.5 µM with MDA-MB-231 breast; above 100 µM in the assay with BT-549 breast; above 100 µM in the assay with MCF7 breast; above 100 µM in the assay on U251 CNS; 17.4 µM in the assay on SK-MEL-5 melanoma; above 100 µM in the assay with SR leukemia. Also, the TGI with UO-31 renal, in the assay on CCRF-CEM leukemia, in the assay with MOLT-4 leukemia and with CAKI-1 renal was above 100 µM in each case.
With `Cc1ccc(N=C/C=C(\Nc2ccc(C)cc2)c2ccc(Cl)cc2)cc1`, the GI50 is 11.2 µM in the assay with MDA-MB-231 breast; 11.2 µM in the assay on BT-549 breast; 5.77 µM in the assay with MCF7 breast; 7.39 µM in the assay on U251 CNS; 6 µM in the assay on SK-MEL-5 melanoma; 2.32 µM in the assay on SR leukemia. Also, the GI50 was 21.4 µM in the assay with UO-31 renal, 1.95 µM in the assay with CCRF-CEM leukemia, 4.25 µM with MOLT-4 leukemia and 8.52 µM in the assay with CAKI-1 renal. Further, the TGI was 46.6 µM with MDA-MB-231 breast; 29.2 µM in the assay with BT-549 breast; 69.6 µM in the assay on MCF7 breast; 50.1 µM in the assay on U251 CNS; 20.7 µM in the assay with SK-MEL-5 melanoma; above 100 µM with SR leukemia. The TGI is 85.8 µM in the assay on UO-31 renal, 33.5 µM with CCRF-CEM leukemia, above 100 µM in the assay on MOLT-4 leukemia and 40.4 µM with CAKI-1 renal.
Turning to `O=c1cc(NCC(O)CN2CCCC2)n(Cc2ccccc2)c(=O)n1Cc1ccccc1` (configuration not stated), the GI50 in the assay with MDA-MB-231 breast is 26.3 µM; in the assay with BT-549 breast, 61.6 µM; in the assay with MCF7 breast, 19.1 µM; in the assay on U251 CNS, 43.6 µM; in the assay with SK-MEL-5 melanoma, 17.1 µM; in the assay with SR leukemia, 0.847 µM. In addition, the GI50 in the assay on UO-31 renal is 45.8 µM; in the assay on CCRF-CEM leukemia, 28.1 µM; in the assay on MOLT-4 leukemia it was 24.3 µM; in the assay with CAKI-1 renal, above 100 µM. The TGI in the assay on MDA-MB-231 breast is 70.6 µM; in the assay on BT-549 breast, above 100 µM; with MCF7 breast it was 34.8 µM; with U251 CNS, above 100 µM; with SK-MEL-5 melanoma, 32.2 µM; with SR leukemia, 31 µM. Besides, the TGI was above 100 µM with UO-31 renal, 80.6 µM in the assay on CCRF-CEM leukemia, 72.8 µM in the assay with MOLT-4 leukemia and above 100 µM in the assay with CAKI-1 renal.
Turning to `COc1ccc(/C=C/c2c(C(=O)/C=C/c3ccccc3)c(C)nc3ccccc23)cc1`, the GI50 was 2.43 µM in the assay on MDA-MB-231 breast; 2 µM in the assay with BT-549 breast; 1.37 µM in the assay with MCF7 breast; 1.61 µM in the assay with U251 CNS; 1.73 µM in the assay on SK-MEL-5 melanoma; 1.56 µM with SR leukemia. Further, the GI50 was 1.28 µM in the assay on UO-31 renal, 2.33 µM in the assay on CCRF-CEM leukemia, 1.33 µM in the assay with MOLT-4 leukemia and 1.41 µM with CAKI-1 renal. Besides, the TGI in the assay with MDA-MB-231 breast amounted to 7.87 µM; in the assay on BT-549 breast it was 5.18 µM; in the assay on MCF7 breast it was 7.74 µM; with U251 CNS, 2.96 µM; in the assay with SK-MEL-5 melanoma, 3.13 µM; in the assay with SR leukemia it was 7.19 µM. Moreover, the TGI is 2.54 µM with UO-31 renal, above 100 µM in the assay on CCRF-CEM leukemia, 5.69 µM with MOLT-4 leukemia and 2.82 µM with CAKI-1 renal.
For the molecule `CC1=C(/C=C/Cl)CC(Cl)C(C)(Cl)C1` (configuration not stated), the TGI in the assay on MDA-MB-231 breast, with BT-549 breast, in the assay on MCF7 breast, in the assay on U251 CNS, with SK-MEL-5 melanoma and in the assay on SR leukemia was above 100 µM in each case. Moreover, the TGI is above 100 µM in the assay on UO-31 renal, 74.2 µM with CCRF-CEM leukemia, above 100 µM with MOLT-4 leukemia and above 100 µM in the assay on CAKI-1 renal.
For `CCc1nc2cc(F)c(/C=C/C(=O)NO)cc2c(=O)n1CCc1ccccc1`, the GI50 was 0.376 µM in the assay on MDA-MB-231 breast; 0.377 µM with BT-549 breast; 0.302 µM in the assay with MCF7 breast; 0.277 µM in the assay with U251 CNS; 0.256 µM in the assay with SK-MEL-5 melanoma; 0.354 µM in the assay on SR leukemia. Also, the GI50 was 0.2 µM with UO-31 renal, 0.4 µM with CCRF-CEM leukemia, 0.353 µM in the assay with MOLT-4 leukemia and 0.305 µM in the assay with CAKI-1 renal. Moreover, the TGI with MDA-MB-231 breast is 15.3 µM; in the assay with BT-549 breast it was 12.6 µM; in the assay on MCF7 breast it was above 100 µM; in the assay with U251 CNS, 0.891 µM; in the assay with SK-MEL-5 melanoma, 0.701 µM; with SR leukemia it was 53.3 µM. The TGI was 0.648 µM in the assay with UO-31 renal, above 100 µM in the assay on CCRF-CEM leukemia, 29.1 µM in the assay on MOLT-4 leukemia and 3.12 µM with CAKI-1 renal.
As for `COc1ccc(C2=C(Cl)c3cc(OC)c(OC)cc3C2Cl)cc1` (configuration not stated), the TGI in the assay on MDA-MB-231 breast was 36.6 µM; with BT-549 breast, 15.6 µM; in the assay with MCF7 breast, 22.8 µM; with U251 CNS, 26.6 µM; with SK-MEL-5 melanoma, 27.5 µM; with SR leukemia it was above 100 µM. Moreover, the TGI was 13.4 µM in the assay with UO-31 renal, 21 µM in the assay on CCRF-CEM leukemia, above 59.4 µM in the assay with MOLT-4 leukemia and 34.6 µM with CAKI-1 renal.
Regarding `COCC[C@H]1CCC/C=C/[C@@H]2C[C@H](O)C[C@H]2[C@H](O)/C=C/C(=O)O1`, the GI50 in the assay with MDA-MB-231 breast is 0.131 µM; in the assay with BT-549 breast it was 0.132 µM; in the assay on MCF7 breast, 0.0437 µM; with U251 CNS it was 0.166 µM; with SK-MEL-5 melanoma it was 0.0172 µM; in the assay on SR leukemia it was 0.141 µM. The GI50 with UO-31 renal was 0.0563 µM; in the assay on CCRF-CEM leukemia it was 0.322 µM; with MOLT-4 leukemia it was 0.353 µM; with CAKI-1 renal, 0.36 µM. In addition, the TGI in the assay on MDA-MB-231 breast was 0.322 µM; with BT-549 breast, above 90.9 µM; in the assay on MCF7 breast, 0.171 µM; in the assay on U251 CNS, above 100 µM; in the assay on SK-MEL-5 melanoma, 0.0319 µM; with CCRF-CEM leukemia, above 100 µM. Moreover, in the assay on MOLT-4 leukemia, the TGI is above 100 µM.
